Source: US8859848B2, “Phloretin glycosyltransferases, polynucleotides encoding these and methods of use” (The New Zealand Institute for Plant and Food Research …, priority 2007, dated 2014)
Entries after “also recorded” stand apart in the source; their conditions may differ. Read-outs that look alike come from different tables or passages of the source.

T1: MpUGT88A1 (Malus domestica, UniProt B3TKC8)
T1 construct: The entire coding region of the MpUGT88A1 cDNA was cloned in frame into the expression vector pET30a(+); made in house; host or cells: E. coli BL21-Codon-Plus-RIL
T1 sequence (B3TKC8 1-483): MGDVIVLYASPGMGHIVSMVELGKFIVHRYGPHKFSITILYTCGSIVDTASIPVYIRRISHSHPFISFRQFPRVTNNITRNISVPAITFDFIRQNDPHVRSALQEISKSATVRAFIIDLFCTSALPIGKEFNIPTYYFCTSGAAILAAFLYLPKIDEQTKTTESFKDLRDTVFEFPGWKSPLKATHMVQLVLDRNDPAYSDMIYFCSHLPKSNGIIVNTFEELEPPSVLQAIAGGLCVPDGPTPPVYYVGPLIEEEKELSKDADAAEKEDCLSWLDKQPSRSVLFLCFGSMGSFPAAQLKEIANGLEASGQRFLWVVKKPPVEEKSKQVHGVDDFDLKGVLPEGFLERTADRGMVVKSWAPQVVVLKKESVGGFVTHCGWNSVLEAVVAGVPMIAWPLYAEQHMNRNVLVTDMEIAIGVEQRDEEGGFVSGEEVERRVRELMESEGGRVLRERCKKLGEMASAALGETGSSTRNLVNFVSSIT

B1: Md—138221: variant phloretin glycosyltransferase polypeptide from Malus x domestica (protein, listed as Malus domestica)
chain: MGDVIVLYAAPGMGHVISMVELGKLILHRYGPHKFSITILYTCGSFFDTPSIPAYIRRISHSHPSISFRQFPRVTNKITQNISGTAIVVDFVRQNDPHVRRALQDISKSAVVRAFIIDLVCTSAMTISKEFDIPTYYFYTSGAAALGAFLYFPKIHEQTTQSFKDLTDTVIEFPGRKSPLKAIHMIEPLLDRDDPAYWDFLSFCSDLPKSKGIIVNTFEELEPPAVLHAIAEGLCVPDGPTSPVYYVGPLIDEEKVSGNDAAAAEEDCLSWLDKQPSRSVVFLCFGSRGSLPAIQLKEIAKALEASGQRFLWVVKKPPVDEKTKQVLGVDDFDLEGVLPEGFLERTKDRGMVVKSWAPQAEVLKKESVGGFVTHCGWNSVLEAVVAGVPMIAWPLYAEQHLNRNVMATDMEIAIAVEQRDEEDGFVSGEELERRVRELMESEEGRVLRERSKKIGEMAMAALGENGSSTRNLVNFVNSLT
B2: MpUGT88A1: Malus domestica uridine diphosphate glycosyltransferase; recombinant His6-tagged phloretin glycosyltransferase produced in E. coli (protein, listed as Malus domestica)
chain: MGDVIVLYASPGMGHIVSMVELGKFIVHRYGPHKFSITILYTCGSIVDTASIPVYIRRISHSHPFISFRQFPRVTNNITRNISVPAITFDFIRQNDPHVRSALQEISKSATVRAFIIDLFCTSALPIGKEFNIPTYYFCTSGAAILAAFLYLPKIDEQTKTTESFKDLRDTVFEFPGWKSPLKATHMVQLVLDRNDPAYSDMIYFCSHLPKSNGIIVNTFEELEPPSVLQAIAGGLCVPDGPTPPVYYVGPLIEEEKELSKDADAAEKEDCLSWLDKQPSRSVLFLCFGSMGSFPAAQLKEIANGLEASGQRFLWVVKKPPVEEKSKQVHGVDDFDLKGVLPEGFLERTADRGMVVKSWAPQVVVLKKESVGGFVTHCGWNSVLEAVVAGVPMIAWPLYAEQHMNRNVLVTDMEIAIGVEQRDEEGGFVSGEEVERRVRELMESEGGRVLRERCKKLGEMASAALGETGSSTRNLVNFVSSIT
modifications: His6 tag
notes: Malus domestica uridine diphosphate glycosyltransferase; recombinant His6-tagged phloretin glycosyltransferase produced in E. coli

Key:
Assay type in all cases: biochemical
MpUGT88A1 [1] = biological target: T1, MpUGT88A1; assay: UGT activity assay with [3H]-UDP-glucose, recombinant MpUGT88A1; settings: [3H]-UDP-glucose as sugar donor; 2 mM substrate; 30° C., 30 min
Description: UGT activity assays were performed in triplicate in 50 μl reactions using ˜1-2 μg of recombinant protein purified on His-Trap and G200 Superdex columns. […] Reactions were performed at 30° C. for 30 min and terminated by addition of 10 μL of 2 M HCl. The reaction mixtures were extracted twice with 100 μL of ethyl acetate and 20 μl of the organic phase were combined with 1 ml of non-aqueous scintillation fluid and analysed by liquid scintillation counting (Tri-Carb 2900TR, PerkinElmer, Boston, Mass., USA). Boiled enzyme and pET30a(+) vector controls were run in parallel with all enzyme reactions. […]
Fifteen substrates (caffeic acid, catechin, chlorogenic acid, 2-coumaric acid, 3-coumaric acid, 4-coumaric acid, cyanidin, 3-(3,4 dihydroxyphenyl) propionic acid, epicatechin, 3-hydroxybenzoic acid, naringenin, phloretin, protocatechuic acid, quercetin and rutin) that are natural constituents of apple fruit or commonly available phenolic compounds were screened for activity.

MpUGT88A1 [2] = biological target: T1, MpUGT88A1; settings: 2 μM phloretin; for inhibition of enzyme activity by divalent cations: 25 mM
Description: (§1) UGT activity assays were performed in triplicate in 50 μl reactions using ˜1-2 μg of recombinant protein purified on His-Trap and G200 Superdex columns. […] Reactions were performed at 30° C. for 30 min and terminated by addition of 10 μL of 2 M HCl. The reaction mixtures were extracted twice with 100 μL of ethyl acetate and 20 μl of the organic phase were combined with 1 ml of non-aqueous scintillation fluid and analysed by liquid scintillation counting (Tri-Carb 2900TR, PerkinElmer, Boston, Mass., USA). Boiled enzyme and pET30a(+) vector controls were run in parallel with all enzyme reactions.
(§2) The effect on UGT activity of different pH (5-10), temperature (15-50° C.) and ionic strength of monovalent (Na^+, 0-100 mM; K^+, 0-10 mM) and divalent ions ([…] or Mn^2+, 0-25 mM) was determined as described above using 2 μM phloretin.

MpUGT88A1 [3] = biological target: T1, MpUGT88A1; settings: 10 μM phloretin, 250 μM UDP-sugar, 16 h
[4] = Phloretin glycosyl transferase activity assay of recombinant Md—138221; settings: recombinant protein from E. coli
Description: as §1

[5] = Effect of pH and temperature on UGT activity of MpUGT88A1 towards phloretin; settings: 2 μM phloretin
Description: as §1, §2

| Molecule | utilised by MpUGT88A1 as an acceptor (substrate screen) (MpUGT88A1 [1]) | other results |
| --- | --- | --- |
| O=C(O)/C=C/c1ccccc1O [2-coumaric acid] | only phloretin was utilised | – |
| O=C(O)CCc1ccc(O)c(O)c1 [3-(3,4 dihydroxyphenyl) propionic acid] | only phloretin was utilised | – |
| O=C(O)/C=C/c1cccc(O)c1 [3-coumaric acid] | only phloretin was utilised | – |
| O=C(O)c1cccc(O)c1 [3-hydroxybenzoic acid] | only phloretin was utilised | – |
| O=C(O)/C=C/c1ccc(O)cc1 [4-coumaric acid] | only phloretin was utilised | – |
| [K+] [K^+] | – | inhibition of enzyme activity by monovalent cation (MpUGT88A1 [2]; 10 mM): not inhibited |
| [Mg+2] [Mg^2+] | – | inhibition of enzyme activity by divalent cations (MpUGT88A1 [2]): not inhibited |
| [Mn+2] [Mn^2+] | – | inhibition of enzyme activity by divalent cations (MpUGT88A1 [2]): not inhibited |
| [Na+] [Na^+] | – | inhibition of enzyme activity by monovalent cation (MpUGT88A1 [2]; 100 mM): not inhibited |
| O=c1ccn([C@@H]2O[C@H](COP(=O)(O)OP(=O)(O)O[C@H]3OC[C@@H](O)[C@H](O)[C@H]3O)[C@@H](O)[C@H]2O)c(=O)[nH]1 [UDP-xylose] | – | glycosylated product formation with phloretin and activated sugar donor (HPLC/LC-MS) (MpUGT88A1 [3]): a single glycosylated product was formed |
| O=C(O)/C=C/c1ccc(O)c(O)c1 [caffeic acid] | only phloretin was utilised | – |
| O=C(/C=C/c1ccc(O)c(O)c1)O[C@@H]1C[C@](O)(C(=O)O)C[C@@H](O)[C@H]1O [chlorogenic acid] | only phloretin was utilised | – |
| O=C1C[C@@H](c2ccc(O)cc2)Oc2cc(O)cc(O)c21 [naringenin] | only phloretin was utilised; also recorded: not utilised as substrates | – |
| O=C(CCc1ccc(O)cc1)c1c(O)cc(O)cc1O [phloretin] | only phloretin was utilised | – |
| O=C(O)c1ccc(O)c(O)c1 [protocatechuic acid] | only phloretin was utilised | – |
| O=c1c(O)c(-c2ccc(O)c(O)c2)oc2cc(O)cc(O)c12 [quercetin] | only phloretin was utilised; also recorded: not utilised as substrates | – |
| catechin | only phloretin was utilised | – |
| B1 | – | phloretin glycosyltransferase activity relative to that shown for MpUGT88A1 [4]: approximately 3% |
| B2 | – | pH range of significant activity ([5]; pH range 5-10): 7-8; pH of maximum activity ([5]; pH range 5-10, 50 mM Tris-HCl): 7.7; activity at pH 5 and 10 ([5]; relative to maximum): less than 5%; activity at pH 6 and 9 ([5]; relative to maximum): 20%; temperature of maximum activity ([5]; standard conditions): 25 °C; temperature range of activity ([5]; standard conditions): 15-50 °C |
